This test has as its target T1, α4·IgG heavy chain-β1·IgG heavy chain chimeric protein heterodimer complex (chimeric protein of VLA-4 and IgG heavy chain) (Homo sapiens, UniProt P05556+P13612).
T1 construct: a chimeric molecule being composed with the extracellular region of integrin α4 and an immunoglobulin heavy chain; a chimeric molecule being composed with the extracellular region of integrin β1 and an immunoglobulin heavy chain; made in house; unpurified culture supernatant used in the assay
Briefly: binding of α4·IgG heavy chain-β1·IgG heavy chain chimeric protein heterodimer complex to solid phase CS-1-IgG (absorbance at 490 nm). The following applies: for inhibition at 50 µg/mL: Concentration 50 µg/ml, read-out: Inhibition rate (%). On the procedure:
At first, according to the said report (Humphries, M. J. et al., J. Biol. Chem., 262, 6886-6892 (1987)), the peptide fragment of sequence No. 13 (CS-1 peptide) was bound to rabbit IgG (Sigma), to prepare CS-1-IgG. The CS-1-IgG was diluted by PBS(-), and supplied in a 96-well immunoplate (NUNC) by 100 µl/well, and allowed to stand at 4°C for 16 hours, to be formed as a solid phase on the plate.
After completion of standing, the surface of the plate was washed with PBS(-) twice and treated with 1% BSA(heat-denatured at 80°C for 10 minutes)-PBS solution (300 µl/well) at 4°C for 3 hours to block the nonspecific reaction. Then, the solid phase CS-1-IgG and the CHO culture supernatant (100 µl) containing α4·IgG heavy chain-β1·IgG heavy chain chimeric protein heterodimer complex were reacted with each other at 30°C for 3 hours. The non-bound α4·IgG heavy chain-β1·IgG heavy chain chimeric protein heterodimer complex was removed by washing with 0.1% BSA-containing TBS buffer (150 mM NaCl, 25 mM Tris-HCl, 1 mM MnCl2, pH 7.4) twice, and the bound α4·IgG heavy chain-β1·IgG heavy chain chimeric protein heterodimer complex was detected by biotin labeled anti-human IgG antibody (Vector) as the primary antibody and avidin labeled horseradish peroxidase (Sigma) used as the secondary anti body. The surface of the plate was washed with the TBS buffer. Orthophenylenediamine was added as a substrate to it for color development, and the absorbance at 490 nm were measured.
The all peptides were synthesized by a peptide synthesizer. The peptide and 100 µl of CHO cultured supernatant solution containing α4·IgG heavy chain-β1·IgG heavy chain chimeric protein heterodimer complex were mixed at room temperature for 20 minutes, and the binding to CS-1-IgG was determined according to the method in Example 4.
Reagents and the compounds stated in literature were picked up at random, adjusted to a final concentration of 50 µg/ml, and added to the binding assay system of Example 4. Compounds showing inhibitory activity were obtained. […]

Each structure is given as a SMILES string.

T1 sequence (P13612 35-977 limits assumed, change not shown): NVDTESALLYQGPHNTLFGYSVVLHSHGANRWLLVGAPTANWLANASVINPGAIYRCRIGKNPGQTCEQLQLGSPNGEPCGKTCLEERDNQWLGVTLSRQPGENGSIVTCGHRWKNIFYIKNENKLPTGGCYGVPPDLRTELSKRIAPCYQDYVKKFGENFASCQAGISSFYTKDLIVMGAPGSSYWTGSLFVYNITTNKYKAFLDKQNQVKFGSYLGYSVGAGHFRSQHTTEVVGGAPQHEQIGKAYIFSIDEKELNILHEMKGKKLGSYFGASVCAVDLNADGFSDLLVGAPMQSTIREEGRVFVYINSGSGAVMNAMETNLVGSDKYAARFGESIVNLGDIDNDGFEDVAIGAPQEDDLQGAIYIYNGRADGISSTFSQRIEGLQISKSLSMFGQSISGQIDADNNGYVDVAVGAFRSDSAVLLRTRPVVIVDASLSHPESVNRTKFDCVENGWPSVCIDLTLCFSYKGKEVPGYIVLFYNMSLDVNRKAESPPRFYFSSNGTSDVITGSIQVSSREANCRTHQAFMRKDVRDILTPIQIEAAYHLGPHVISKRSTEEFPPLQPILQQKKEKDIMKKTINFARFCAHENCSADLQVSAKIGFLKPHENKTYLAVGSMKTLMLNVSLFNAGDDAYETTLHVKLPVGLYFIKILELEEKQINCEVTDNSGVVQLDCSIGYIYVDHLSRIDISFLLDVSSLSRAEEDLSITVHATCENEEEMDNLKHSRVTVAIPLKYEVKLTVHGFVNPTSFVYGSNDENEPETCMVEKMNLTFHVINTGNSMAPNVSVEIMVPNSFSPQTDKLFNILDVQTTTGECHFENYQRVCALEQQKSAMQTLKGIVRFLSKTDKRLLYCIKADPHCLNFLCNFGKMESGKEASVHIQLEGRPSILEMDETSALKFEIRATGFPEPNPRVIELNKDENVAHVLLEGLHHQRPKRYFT
T1 sequence (P05556 21-728 limits assumed, change not shown): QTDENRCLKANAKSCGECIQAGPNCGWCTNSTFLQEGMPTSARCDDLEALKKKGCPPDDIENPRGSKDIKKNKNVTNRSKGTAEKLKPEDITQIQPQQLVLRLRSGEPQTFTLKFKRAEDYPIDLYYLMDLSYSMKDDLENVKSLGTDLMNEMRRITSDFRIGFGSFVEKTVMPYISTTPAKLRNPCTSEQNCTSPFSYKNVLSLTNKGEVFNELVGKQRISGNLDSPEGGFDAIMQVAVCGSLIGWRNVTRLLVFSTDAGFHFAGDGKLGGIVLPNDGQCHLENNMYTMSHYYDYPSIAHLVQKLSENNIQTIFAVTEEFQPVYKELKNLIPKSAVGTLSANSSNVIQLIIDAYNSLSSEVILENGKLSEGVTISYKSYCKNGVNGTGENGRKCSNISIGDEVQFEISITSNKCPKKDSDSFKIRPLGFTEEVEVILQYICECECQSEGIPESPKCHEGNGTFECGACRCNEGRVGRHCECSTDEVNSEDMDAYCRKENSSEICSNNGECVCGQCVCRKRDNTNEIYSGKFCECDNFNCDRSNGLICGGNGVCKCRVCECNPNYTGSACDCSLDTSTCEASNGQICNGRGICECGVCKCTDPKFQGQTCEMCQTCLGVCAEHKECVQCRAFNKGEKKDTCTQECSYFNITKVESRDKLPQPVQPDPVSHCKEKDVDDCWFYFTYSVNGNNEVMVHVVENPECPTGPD
T1 sequence (P01857 99-330 partner limits assumed): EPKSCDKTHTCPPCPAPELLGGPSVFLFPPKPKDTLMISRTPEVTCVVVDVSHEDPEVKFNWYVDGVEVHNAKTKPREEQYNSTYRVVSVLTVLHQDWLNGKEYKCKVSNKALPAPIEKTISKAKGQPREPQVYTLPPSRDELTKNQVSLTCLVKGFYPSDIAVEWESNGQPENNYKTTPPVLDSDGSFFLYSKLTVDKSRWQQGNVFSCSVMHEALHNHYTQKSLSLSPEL

The inhibition is the drop in the measured response relative to a control, in per cent. As to `O=c1ccc2ccc(O)cc2o1` [7-Hydroxycoumarin], the inhibition at 50 µg/mL worked out at 87.5%.

For the compound `C[C@H](CCC(=O)O)[C@H]1CC[C@H]2[C@@H]3C(=O)C[C@@H]4CC(=O)CC[C@]4(C)[C@H]3CC(=O)[C@]12C` [Dehydrocholic acid], the inhibition at 50 µg/mL came to 39.5%.

As to `O=C(O)CN(CCN(CC(=O)O)CC(=O)O)CC(=O)O` [EDTA], the “inhibition of binding to CS-1 peptide” value (5 mM, Fig. 1) is given as “almost perfectly inhibited”.

The values above are taken from patent EP0917878A1, “REMEDIES FOR HEPATITIS” (TORAY INDUSTRIES, INC., priority 1997, dated 1998).
